One data set has as its target HDAC3/NcoR2 (Homo sapiens (Human), UniProt O15379). Description: HDAC activity inhibition assay, HDAC3/NcoR2. Type of data set: biochemical. How it is done: (§1) The HDAC activity inhibition assay was performed as follows to determine the ability of a test compound to inhibit HDAC enzymatic activity. […] Following pre-incubation, Fluor-de-Lys™ substrate (Enzo Life Sciences, Plymouth Meeting, Pa., BML-KI104-0050) was added to a final concentration of 10 μM and plates were further incubated for 30 minutes at room temperature. […] IC50 values were calculated by using a sigmoidal dose-response (variable slope) equation in GraphPad Prism® 5 for Windows (GraphPad Software, La Jolla, Calif.).

In data set [1] the test system is GM 15850(lymphoblastoid cells line) cells. Nature of the data set: In-cell deacetylase inhibition assay (DAC assay). The class given is cell-based. To be noted: GM 15850 cells, 4 h incubation, read-out: 850 DAC (in-cell deacetylase inhibition IC50). Here is the method: Compound dilutions were made in 100% DMSO followed by parallel dilution in media with 2% DMSO. 10 μl of the compound dilutions were added to the cells to achieve the desired concentrations. The final concentration of DMSO in each well was 0.2%. The cells were incubated for 4 h at 37° C. with 5% CO2. After incubation, the cells were centrifuged down and the supernatant was removed. […] The reaction was stopped after 30 min incubation by addition of 50 μL developer (6 mg/mL trypsin in HDAC assay buffer). The reaction was allowed to develop for 30 min at room temperature and the fluorescence signal was detected using a fluorometer (Spectramax M2, Molecular Devices, Sunnyvale, Calif.) with excitation and emission wavelengths of 360 nm and 470 nm respectively. The data was fitted to a sigmoidal dose response equation with variable slope in GraphPad Prism 5.0 (GraphPad Software, La Jolla, Calif.) to determine IC50. Bottom and top of the curve were fixed to the average fluorescence response of control wells with no cells and cells but no compound respectively.

Another data set has as its target HDAC1 (Homo sapiens (Human), UniProt Q13547). Description: HDAC activity inhibition assay, HDAC1. The class given is biochemical. Here is the method:
as §1

Another data set concerns the target HDAC2 (Homo sapiens (Human), UniProt Q92769). Description: HDAC activity inhibition assay, HDAC2. The class given is biochemical. Here is the method:
as §1

For a further data set, the system named is C57BL/6J male mice. Nature of the data set: Long term memory for object recognition (ORM). The class given is in vivo. To be noted: s.c. 3, 10, 30 mg/kg. Here is the method:
C57BL/6J male mice were handled 1-2 min for 5 days and were habituated to the experimental apparatus 5 min a day for 4 consecutive days in the absence of objects. […] 24-h later mice were tested for memory retention (5 min) using the object recognition memory task (ORM), in which a familiar object was replaced with a novel one. All training and testing trials were videotaped and analyzed by individuals blind to the treatment condition and the genotype of subjects. A mouse was scored as exploring an object when its head was oriented toward the object within a distance of 1 cm or when the nose was touching the object. The relative exploration time was recorded and expressed by a discrimination index [DI=(tnovel−tfamiliar)/(tnovel+tfamiliar)×100].

In another data set the test system is Human Hepatocytes. Description: Compound stability in hepatocytes. To be noted: 5 μM.
A short description of data set [2]: Brain penetration studies. To be noted: Table 4; mice; Cmax(brain)/Cmax(plasma).
Description: Test compounds were prepared at either 0.5 mg/ml or 5 mg/ml in 30% hydroxypropyl-β-cyclodextrin, 100 mM sodium acetate pH 5.5, 5% DMSO. C57/BL6/J mice were dosed s.c. at 5 mg/kg or 50 mg/kg, or i.v. at 5 mg/kg. Animals were euthanized at pre-dose, 5, 15, 30 min, 1, 2 and 4 hours post-dose and plasma and brain obtained. Three animals per dose per time points were used. The levels of compound in the plasma and brain were determined by standard LC/MS/MS methods. Brain/plasma ratio (BPR) was calculated as the ratio of the Cmax(brain)/Cmax(plasma).
A further data set deals with Frataxin (FXN) mRNA. Nature of the data set: Effect of HDAC inhibitors on frataxin (FXN) mRNA expression in Friedreich's ataxia patient primary lymphocytes. The class given is cell-based, human. To be noted: Table 4; concentration for 2-fold increase in FXN mRNA. Here is the method:
Blood is collected from Friedreich's ataxia patient donors into tubes containing the anti-coagulant EDTA. Primary lymphocytes are isolated using Lymphocyte Separation Medium (MP Biomedicals, Solon, Ohio) following the manufacturer's instructions and including a few modifications made by Repligen. After a final wash in Phosphate Buffered Saline (PBS), the cells are distributed into a 6-well cell culture plate in cell growth medium. The test HDAC inhibitor compound is added to cells in a dose escalating manner (usually concentrations range from 1 to 10 μM) and 0.1% DMSO is added to one well of cells as a no treatment control. Cells are incubated for 48 hours at 37° C. in a CO2 incubator; cell counts are taken using a Countess automated cell counter (Invitrogen, Carlsbad, Calif.). Equivalent numbers of cells for all treatment conditions are pelleted by centrifugation and resuspended in cell lysis buffer. Total RNA is isolated from approximately 1×10^6 primary lymphocytes using a RNeasy Mini Kit (Qiagen, Valencia, Calif.), following the manufacturer's instructions and including an optional on-column DNAse digestion step. The isolation is performed either manually or using the QIAcube (Qiagen, Valencia, Calif.), an instrument that automates much of the isolation procedure. The RNA yield and concentration is determined using a Nanodrop spectrophotometer (Thermo Fisher Scientific, Waltham, Mass.) and depending on the RNA concentration, one of two protocols is used to measure frataxin (FXN) transcript levels. For samples containing at least 15 ng/μL RNA a TaqMan® Probe-based (Applied Biosystems, Carlsbad, Calif.) qRT-PCR method is used, while for samples containing less than 15 ng/μL RNA a SYBR Green qRT-PCR method is used. In the TaqMan® Probe-based method specific primer/probe pairs for FXN and GAPDH are multiplexed in each reaction. In the SYBR Green method FXN and GAPDH are amplified in separate reactions. In both methods each RNA sample is analyzed in triplicate (preferably) or duplicate (minimally) using a one-step qRT-PCR master mix that contains all the components necessary for cDNA synthesis and PCR amplification in a single, continuous reaction. After cycling is complete, MxPro Software (Agilent Technologies, Santa Clara, Calif.) is used to analyze the collected data and determine the relative amount of FXN mRNA compared to a control sample. An adaptive baseline method is used for baseline correction whereby an algorithm automatically selects the appropriate baseline cycles for each well and each dye. An amplification-based threshold is set and the corresponding threshold cycle, or Ct, is obtained for calculating target concentration. The Ct values for each target gene (FXN and GAPDH) for each replicate series are averaged. The amount of FXN (or GAPDH) in the sample is determined as the relative quantity to the calibrator where the calibrator sample is assigned an arbitrary quantity of 1. The following equation is used: Relative quantity to the calibrator=2^−ΔCt where ΔCt=(Ct_gene)unknown−(Ct_gene)calibrator, gene is either FXN or GAPDH, calibrator is a DMSO control sample, and unknown is a HDACi treated sample. The relative quantity of FXN is normalized to cell number and RNA input. Data is reported in Tables 2 and 4 below, where the concentration required for a 2-fold increase in FXN mRNA is reported as A if less than 5 μM, B if between 5 and 10 μM, C if greater than 10 μM.

The mark [3] stands for this setting: Table 1, 2 hours pre-incubation.

Structures are written as SMILES. Like-named read-outs stand apart in the source and are kept apart here.

HDAC1, sequence (Q13547 whole entry): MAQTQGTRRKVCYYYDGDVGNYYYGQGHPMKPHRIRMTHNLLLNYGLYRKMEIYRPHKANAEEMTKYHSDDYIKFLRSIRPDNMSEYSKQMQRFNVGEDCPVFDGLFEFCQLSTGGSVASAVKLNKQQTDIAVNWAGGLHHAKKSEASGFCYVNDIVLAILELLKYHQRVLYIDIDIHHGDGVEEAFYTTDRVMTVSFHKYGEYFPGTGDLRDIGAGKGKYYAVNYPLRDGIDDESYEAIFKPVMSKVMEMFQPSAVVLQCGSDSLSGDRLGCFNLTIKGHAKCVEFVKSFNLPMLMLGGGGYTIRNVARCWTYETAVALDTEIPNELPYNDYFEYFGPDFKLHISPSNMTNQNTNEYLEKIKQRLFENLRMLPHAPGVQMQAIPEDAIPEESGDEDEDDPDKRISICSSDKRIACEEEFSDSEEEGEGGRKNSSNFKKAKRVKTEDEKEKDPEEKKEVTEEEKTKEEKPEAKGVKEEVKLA
HDAC2, sequence (Q92769 whole entry): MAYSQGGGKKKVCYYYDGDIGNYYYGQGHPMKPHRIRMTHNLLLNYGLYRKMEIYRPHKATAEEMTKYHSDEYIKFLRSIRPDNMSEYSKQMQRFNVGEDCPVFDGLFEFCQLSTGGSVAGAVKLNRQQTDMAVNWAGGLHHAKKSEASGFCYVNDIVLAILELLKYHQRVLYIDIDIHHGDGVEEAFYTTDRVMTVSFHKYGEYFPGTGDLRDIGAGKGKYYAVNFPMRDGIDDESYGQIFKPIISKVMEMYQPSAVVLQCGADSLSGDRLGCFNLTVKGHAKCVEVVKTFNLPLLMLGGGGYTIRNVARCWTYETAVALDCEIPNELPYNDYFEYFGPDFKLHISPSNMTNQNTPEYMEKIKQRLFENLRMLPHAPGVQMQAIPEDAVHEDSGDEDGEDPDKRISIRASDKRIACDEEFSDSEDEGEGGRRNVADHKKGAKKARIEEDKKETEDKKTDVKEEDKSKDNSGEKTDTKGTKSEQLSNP
HDAC3/NcoR2, sequence (O15379 whole entry): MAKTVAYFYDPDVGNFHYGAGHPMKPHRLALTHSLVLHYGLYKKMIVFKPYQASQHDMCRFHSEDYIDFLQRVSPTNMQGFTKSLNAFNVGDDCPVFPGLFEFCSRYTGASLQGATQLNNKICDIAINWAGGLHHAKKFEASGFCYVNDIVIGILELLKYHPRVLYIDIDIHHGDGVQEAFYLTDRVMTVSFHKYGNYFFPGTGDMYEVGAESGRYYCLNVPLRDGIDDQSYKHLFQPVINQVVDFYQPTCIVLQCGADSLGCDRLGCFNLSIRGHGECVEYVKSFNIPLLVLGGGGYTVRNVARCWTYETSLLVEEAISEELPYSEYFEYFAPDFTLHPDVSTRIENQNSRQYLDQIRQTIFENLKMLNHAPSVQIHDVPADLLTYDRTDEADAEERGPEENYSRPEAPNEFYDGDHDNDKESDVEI
HDAC3/NcoR2, sequence (Q9Y618 395-489 partner): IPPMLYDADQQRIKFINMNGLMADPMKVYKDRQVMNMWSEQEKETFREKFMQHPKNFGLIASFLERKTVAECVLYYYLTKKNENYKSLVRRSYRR
Description for Human Hepatocytes: To assess the stability and metabolism of RGFP compounds in hepatocytes. This assay was designed to evaluate the metabolism of RGFP compounds, following their incubation with human, monkey, dog and rat hepatocytes by monitoring either parent drug disappearance or metabolite appearance using HPLC.
Procedure: • Turn on the water-bath heater to 37° C. • Take out the KHB buffer and make sure it is at room temp before use • Prepare 2.5 mM concentration of RGFP compound in DMSO stock • Add 10 μL of above DMSO stock to 2490 μL KHB buffer; final concentration of RGFP compound will be 10 μM • Pre-warm 45 ml InVitro HT Medium to 37° C. in a sterile 50 ml conical tube • Add 1.0 mL Torpedo Antibiotic Mix per 45 mL InVitro HT medium • Transfer 13 mL of warm HT medium with Antibiotic Mix into a 15 mL conical tube. • Carefully remove the hepatocyte vials from liquid nitrogen (liquid phase). • Immediately immerse the vial into a 37° C. water bath. Shake gently until the ice melts entirely. […] Loosen the cell pellet by gently swirling the centrifuge tube • Transfer 100 μL of above solution to a different tube and add 900 μL of KHB buffer to count the cells • Determine the total cell count and the number of viable cells using the Trypan Blue exclusion method • Once you obtain the cell count, multiply the number by 10 (attributing to the dilution factor) • Now add required volume of KHB buffer to the tube containing hepatocytes such that the final count will be 2 million cells/mL • Dispense 50 μL of 2 million cells/ml to a 96 well plate and then add 50 μl of DMSO stock to respective wells (such that, the concentration of RGFP compounds is 5 μM and number of cells are 100000 in each well) • Place the plates on a shaker in a 37° C. incubator with 5% CO2 • Separate plates for each time point are advisable (Time points: 0 h, 1 h, 2 h, and 6 h) • After each time point, add 100 μL of quenching solution. • Quenching solution is an acetonitrile solution containing RGFP531 (10 μM) internal standard, 0.1% formic acid and phenylglyoxol (400 μM). The formic acid and phenylglyoxal is used for the identification and quantification of OPD as mentioned above. • Pipette up and down a few times to ensure a complete stop of reaction • Transfer all the solution into a 1.5 ml tube, vortex thoroughly, and centrifuge at 14000 RPM at 4° C. for 5 minutes to precipitate cell debris
Transfer the 150 μL of supernatant to vials for analysis using HPLC

For the compound `Cn1cc(/C=C/C(=O)Nc2cc(F)ccc2N)cn1` [C3], the IC50 against HDAC3/NcoR2 was under 1000 nM; in data set [1], over 20 µM; at HDAC1, 1000 to 5000 nM; against HDAC2, 1000 to 5000 nM.

Turning to `Nc1cc(F)ccc1NC(=O)/C=C/c1cnn(C/C=C/c2ccccc2)c1` [D2, (E)-N-(2-amino-4-fluorophenyl)-3-(1-cinnamyl-1H-pyrazol-4-yl)acrylamide], in the data set with C57BL/6J male mice, the “effect of dose on long-term memory for object recognition” value is recorded as “no effect of dose”.

`Nc1ccccc1NC(=O)c1ccc(C=C2CN(CC3CC3)C2)cc1` [F12]: the “% left 6 h Hum” value in the data set with Human Hepatocytes is “A (50%<A)”. Moreover, the IC50 against HDAC3/NcoR2 (Table 4), against HDAC1 (Table 4) and on HDAC2 (Table 4) was under 1000 nM in each case. In addition, the BPR entry in data set [2] is “A (A is greater than 1)”. Further, in the data set with Frataxin (FXN) mRNA, the “F × n > 2X (uM)” value is listed as “A (A if less than 5 μM)”.

Consider `CC(C)(C)CN1CCC(=Cc2ccc(C(=O)Nc3ccccc3N)cc2)CC1` [F14], for which, in the data set on Human Hepatocytes, the “% left 6 h Hum” value is listed as “C (30%>C>10%)”. Also, the IC50 against HDAC3/NcoR2 (Table 4), at HDAC1 (Table 4) and at HDAC2 (Table 4) was under 1000 nM in each case. For the same compound, in data set [2], the BPR entry is recorded as “A (A is greater than 1)”. Also, the “F × n > 2X (uM)” value in the data set with Frataxin (FXN) mRNA was “A (A if less than 5 μM)”.

As for `CC(C)(O)CN1CCC(=Cc2ccc(C(=O)Nc3ccccc3N)cc2)CC1` [F15], in the data set on Human Hepatocytes, the “% left 6 h Hum” value is “A (50%<A)”. Besides, the IC50 against HDAC3/NcoR2 (Table 4), against HDAC1 (Table 4) and against HDAC2 (Table 4) was under 1000 nM throughout. For the same compound, the BPR entry in data set [2] is listed as “A (A is greater than 1)”. In addition, in the data set with Frataxin (FXN) mRNA, the “F × n > 2X (uM)” value is reported as “A (A if less than 5 μM)”.

In the case of `CN1CCC(Cn2cc(/C=C/C(=O)Nc3ccccc3N)cn2)CC1` [G1, (E)-N-(2-aminophenyl)-3-(1-((1-methylpiperidin-4-yl)methyl)-1H-pyrazol-4-yl)acrylamide], the IC50 at HDAC3/NcoR2 (setting [3]) was under 1000 nM; in data set [1] (Homo sapiens, GM15850), 1 to 5 µM; on HDAC1 (setting [3]), 1000 to 5000 nM; on HDAC2 (setting [3]) it was 1000 to 5000 nM.

As to `Cc1nn(C/C=C/c2ccccc2)c(C)c1/C=C/C(=O)Nc1ccccc1N` [G2, (E)-N-(2-aminophenyl)-3-(1-cinnamyl-3,5-dimethyl-1H-pyrazol-4-yl)acrylamide], the IC50 was under 1000 nM at HDAC3/NcoR2 (setting [3]); 10 to 20 µM in data set [1] (Homo sapiens, GM15850); 1000 to 5000 nM at HDAC1 (setting [3]); 1000 to 5000 nM on HDAC2 (setting [3]).

In the case of `Cc1ccc(C(=O)NCCCCCC(=O)Nc2ccc(F)cc2N)cc1` [RGFP 136, reference compound], the “effect of dose on long-term memory for object recognition” value with C57BL/6J male mice is on record as “Dose dependent effects”.

Usually IC50 stands for the concentration needed to halve the response being measured.

The record behind these values is US9908899B2 (BIOMARIN PHARMACEUTICAL INC., priority 2011, dated 2018).
